Assay results reported in PubChem BioAssay AID2060905 (Molecular Pharmacology Branch, DTP, NCI, 2025).

Tested on: 282377-053-R-J1-PDC complex spheroid viability
Assay: Anticancer human tumor 282377-053-R-J1-PDC patient-derived colon adenocarcinoma cell line growth inhibition [RAS]
Conditions: for IC50: curve of first compound; for viability, T/C: stronger effect = lower value; active = viability on the fitted dose curve at most 10% of control; inactive = the rest
Summary of the method: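 Agents were tested in combination matrices in half-log decrements from a top concentration at or near clinical Cmax (10 microM if undetermined). Targets were multi-cell spheroids of tumour lines plus HUVEC and MSC stromal cells.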

[1] = second compound 0.000949 µM, first compound 0.0316 µM
[2] = second compound 0.000949 µM, first compound 0.1 µM
[3] = second compound 0.000949 µM, first compound 0.316 µM
[4] = second compound 0.000949 µM, first compound 1 µM
[5] = second compound 0.000949 µM, first compound 3.16 µM
[6] = second compound 0.000949 µM, first compound 10 µM
[7] = second compound 0.003 µM, first compound 0.0316 µM
[8] = second compound 0.003 µM, first compound 0.1 µM
[9] = second compound 0.003 µM, first compound 0.316 µM
[10] = second compound 0.003 µM, first compound 1 µM
[11] = second compound 0.003 µM, first compound 3.16 µM
[12] = second compound 0.003 µM, first compound 10 µM
[13] = second compound 0.00949 µM, first compound 0.0316 µM
[14] = second compound 0.00949 µM, first compound 0.1 µM
[15] = second compound 0.00949 µM, first compound 0.316 µM
[16] = second compound 0.00949 µM, first compound 1 µM
[17] = second compound 0.00949 µM, first compound 3.16 µM
[18] = second compound 0.00949 µM, first compound 10 µM
[19] = second compound 0.03 µM, first compound 0.0316 µM
[20] = second compound 0.03 µM, first compound 0.1 µM
[21] = second compound 0.03 µM, first compound 0.316 µM
[22] = second compound 0.03 µM, first compound 1 µM
[23] = second compound 0.03 µM, first compound 3.16 µM
[24] = second compound 0.03 µM, first compound 10 µM
[25] = second compound 0.0949 µM, first compound 0.0316 µM
[26] = second compound 0.0949 µM, first compound 0.1 µM
[27] = second compound 0.0949 µM, first compound 0.316 µM
[28] = second compound 0.0949 µM, first compound 1 µM
[29] = second compound 0.0949 µM, first compound 3.16 µM
[30] = second compound 0.0949 µM, first compound 10 µM
[31] = second compound 0.3 µM, first compound 0.0316 µM
[32] = second compound 0.3 µM, first compound 0.1 µM
[33] = second compound 0.3 µM, first compound 0.316 µM
[34] = second compound 0.3 µM, first compound 1 µM
[35] = second compound 0.3 µM, first compound 3.16 µM
[36] = second compound 0.3 µM, first compound 10 µM
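Note: spheroids exposed to agents for seven days before readout.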
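Throughout, for viability, T/C: luminescence viability as percent of DMSO vehicle control wells.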

CC(C)NCC(C(=O)N1CCN(c2ncnc3c2C(C)CC3O)CC1)c1ccc(Cl)cc1 (stereo unspecified) + CCn1c(-c2cc(N3CCN(C)CC3)cnc2C(C)OC)c2c3cc(ccc31)-c1csc(n1)CC(NC(=O)C1CC1C)C(=O)N1CCCC(N1)C(=O)OCC(C)(C)C2
inactive: viability, T/C [1] 96.1% | viability, T/C [2] 93.7% | viability, T/C [3] 80.8% | viability, T/C [4] 79.4% | viability, T/C [5] 78% | viability, T/C [6] 76.5% | viability, T/C [7] 90.7% | viability, T/C [8] 106% | viability, T/C [9] 88.2% | viability, T/C [10] 71.8% | viability, T/C [11] 76.2% | viability, T/C [12] 68.3% | viability, T/C [13] 93% | viability, T/C [14] 119% | viability, T/C [15] 79.4% | viability, T/C [16] 68% | viability, T/C [17] 70.7% | viability, T/C [18] 69.1% | viability, T/C [19] 111% | viability, T/C [20] 83.1% | viability, T/C [21] 82.5% | viability, T/C [22] 70% | viability, T/C [23] 65.3% | viability, T/C [24] 64.4% | viability, T/C [25] 95.3% | viability, T/C [26] 87.6% | viability, T/C [27] 93.8% | viability, T/C [28] 62.8% | viability, T/C [29] 63.8% | viability, T/C [30] 65.4% | viability, T/C [31] 100% | viability, T/C [32] 86.6% | viability, T/C [33] 109% | viability, T/C [34] 69.1% | viability, T/C [35] 64.6% | viability, T/C [36] 69.9%
> 10 µM: IC50 (second compound 0.000949 µM) | IC50 (second compound 0.003 µM) | IC50 (second compound 0.00949 µM) | IC50 (second compound 0.03 µM) | IC50 (second compound 0.0949 µM) | IC50 (second compound 0.3 µM)

CC1(O)CCCC1n1c(=O)c(C(F)F)cc2cnc(NC3CCN(S(C)(=O)=O)CC3)nc21 (stereo unspecified) + CCn1c(-c2cc(N3CCN(C)CC3)cnc2C(C)OC)c2c3cc(ccc31)-c1csc(n1)CC(NC(=O)C1CC1C)C(=O)N1CCCC(N1)C(=O)OCC(C)(C)C2
7.03 µM: IC50 (second compound 0.00949 µM)
7.15 µM: IC50 (second compound 0.003 µM)
6.98 µM: IC50 (second compound 0.03 µM)
7.08 µM: IC50 (second compound 0.3 µM)
active: viability, T/C [6] 6.35% | viability, T/C [18] 9.24% | viability, T/C [24] 6.22% | viability, T/C [30] 5.83% | viability, T/C [36] 6.62%
inactive: viability, T/C [1] 101% | viability, T/C [2] 141% | viability, T/C [3] 112% | viability, T/C [4] 155% | viability, T/C [5] 162% | viability, T/C [7] 116% | viability, T/C [8] 117% | viability, T/C [9] 151% | viability, T/C [10] 146% | viability, T/C [11] 204% | viability, T/C [12] 10.2% | viability, T/C [13] 91.9% | viability, T/C [14] 115% | viability, T/C [15] 165% | viability, T/C [16] 153% | viability, T/C [17] 189% | viability, T/C [19] 112% | viability, T/C [20] 104% | viability, T/C [21] 169% | viability, T/C [22] 182% | viability, T/C [23] 167% | viability, T/C [25] 94.1% | viability, T/C [26] 141% | viability, T/C [27] 139% | viability, T/C [28] 141% | viability, T/C [29] 203% | viability, T/C [31] 106% | viability, T/C [32] 134% | viability, T/C [33] 152% | viability, T/C [34] 190% | viability, T/C [35] 174%
6.92 µM: IC50 (second compound 0.0949 µM)
6.75 µM: IC50 (second compound 0.000949 µM)

CC(=O)OC12COC1CC(O)C1(C)C(=O)C(O)C3=C(C)C(OC(=O)C(O)C(NC(=O)OC(C)(C)C)c4ccccc4)CC(O)(C(OC(=O)c4ccccc4)C21)C3(C)C (stereo unspecified) + CCn1c(-c2cccnc2C(C)OC)c2c3cc(ccc31)N1CCOC(CC(NC(=O)C(C(C)C)N(C)C(=O)C3(F)CCN(C(=O)C#CC(C)(C)N(C)C)CC3)C(=O)N3CCCC(N3)C(=O)OCC(C)(C)C2)C1
< 0.0316 µM: IC50 (second compound 0.000949 µM) | IC50 (second compound 0.003 µM) | IC50 (second compound 0.00949 µM) | IC50 (second compound 0.03 µM) | IC50 (second compound 0.0949 µM)
inactive: viability, T/C [1] 35% | viability, T/C [2] 39.9% | viability, T/C [3] 40.9% | viability, T/C [4] 50.3% | viability, T/C [5] 48.3% | viability, T/C [6] 109% | viability, T/C [7] 44.6% | viability, T/C [8] 44.1% | viability, T/C [9] 42.8% | viability, T/C [10] 43.7% | viability, T/C [11] 57.7% | viability, T/C [12] 92% | viability, T/C [13] 54.8% | viability, T/C [14] 43.4% | viability, T/C [15] 40.3% | viability, T/C [16] 42.8% | viability, T/C [17] 63.7% | viability, T/C [18] 84.7% | viability, T/C [19] 48.3% | viability, T/C [20] 39.7% | viability, T/C [21] 38.4% | viability, T/C [22] 52.5% | viability, T/C [23] 83.4% | viability, T/C [24] 94.6% | viability, T/C [25] 48.9% | viability, T/C [26] 51.1% | viability, T/C [27] 47.5% | viability, T/C [28] 55.4% | viability, T/C [29] 88% | viability, T/C [30] 117% | viability, T/C [31] 53.8% | viability, T/C [32] 54.5% | viability, T/C [33] 53.6% | viability, T/C [34] 66.4% | viability, T/C [35] 85.5% | viability, T/C [36] 119%
> 10 µM: IC50 (second compound 0.3 µM)
